According to publication PMC7297664 (2020):

What was measured:
[1] = tested on: RNA 9 (canonical theophylline aptamer, Cy5) (RNA, aptamer) GGCGAUACCAGCCGAAAGGCCCUUGGCAGCGUC; assay: microscale thermophoresis (MST); conditions: Na+ 150 mM (NaCl); TBS: 50 mM Tris-HCl pH 7.5; 10 nM RNA; incubated in ice
[2] = tested on: RNA 12 (8-oxoG at G11) (RNA, aptamer, 7,8-dihydro-8-oxoguanosine at 11) GGCGAUACCAGCCGAAAGGCCCUUGGCAGCGUC; assay: MST binding check; conditions: Na+ 150 mM (NaCl), 10 nM RNA
[3] = tested on: RNA 1 (canonical theophylline aptamer) (RNA, aptamer) GGCGAUACCAGCCGAAAGGCCCUUGGCAGCGUC; assay: ITC; conditions: conditions as previously reported (cited)
[4] = tested on: RNA 9 (canonical theophylline aptamer, Cy5) (RNA, aptamer) GGCGAUACCAGCCGAAAGGCCCUUGGCAGCGUC; assay: MST binding check; conditions: Na+ 150 mM (NaCl), 10 nM RNA
[5] = tested on: RNA 11 (8-oxoG at G26) (RNA, aptamer, 7,8-dihydro-8-oxoguanosine at 26) GGCGAUACCAGCCGAAAGGCCCUUGGCAGCGUC; assay: MST binding check; conditions: Na+ 150 mM (NaCl), 10 nM RNA
[6] = tested on: RNA 10 (8-oxoG at G25) (RNA, aptamer, 7,8-dihydro-8-oxoguanosine at 25) GGCGAUACCAGCCGAAAGGCCCUUGGCAGCGUC; assay: MST binding check; conditions: Na+ 150 mM (NaCl); TBS: 50 mM Tris-HCl pH 7.5; 10 nM RNA; up to 11.25 mM
[7] = tested on: RNA 10 (8-oxoG at G25) (RNA, aptamer, 7,8-dihydro-8-oxoguanosine at 25) GGCGAUACCAGCCGAAAGGCCCUUGGCAGCGUC; assay: microscale thermophoresis (MST); conditions: Na+ 150 mM (NaCl); TBS pH 7.5, up to 5% DMSO; up to 1 mM; incomplete curve, solubility; abstract gives ≈160 μM
[8] = TBS: 50 mM Tris-HCl pH 7.5, up to 11.25 mM
[9] = TBS pH 7.5, up to 5% DMSO, up to 1 mM

Kd [1] [µM] | binding [2, 8] | Kd ([3]; mean of two runs, 0.72 and 1.98 μM) [µM] | binding [4, 8] | binding ([3]; printed Kd = NA) | binding [5, 8] | binding [6] | Kd [7] [µM] | binding [4, 9] | binding [2, 9] | binding [5, 9] | Compound
29 ± 35 | no | 1.35 | – | – | – | – | – | – | – | – | Cn1c(=O)c2[nH]cnc2n(C)c1=O
– | no | – | no | no | no | no | – | – | – | – | Cn1c(=O)c2c(ncn2C)n(C)c1=O
– | – | – | – | – | – | – | > 160 | no | no | no | Cn1cnc2c1c(=O)[nH]c(=O)n2C
